Assay results as given in the NIST ThermoML archive (doi:10.1016/j.fluid.2015.07.030).

Tests used:
[1] = xn = mol fraction of the nth substance listed; details: 293.15 K; 95.99 kPa; Liquid; Vibrating tube method; x1 = 1
[2] = refractive index (other wavelength) (dimensionless); xn = mol fraction of the nth substance listed; details: 95.99 kPa, Liquid, Standard Abbe refractometry, x1 = 1
[3] = Liquid; for mass density: 95.99 kPa, Vibrating tube method; for vapor or sublimation pressure: Ebulliometric method (Recirculating still)
[4] = refractive index (other wavelength) (dimensionless); details: 95.99 kPa, Liquid, Wavelength=404.7 nm, Standard Abbe refractometry

O [water] + OCCOCCOCCO
Details | mass density [kg/m3]
[1] | 998.27

refractive index, [2]
Details | Wavelength=404.7 nm | Wavelength=435.8 nm | Wavelength=486.1 nm | Wavelength=546.1 nm | Wavelength=587.6 nm | Wavelength=589.3 nm | Wavelength=632.8 nm | Wavelength=644 nm | Wavelength=706.5 nm
293.15 K | 1.34287 | 1.34033 | 1.33728 | – | 1.33325 | 1.332 | 1.33194 | 1.33164 | 1.33018
298.15 K | 1.34223 | 1.33969 | 1.33606 | 1.33405 | 1.33262 | 1.33257 | 1.33132 | 1.33103 | 1.32956
303.15 K | 1.3416 | 1.33908 | 1.33606 | 1.33344 | 1.33203 | 1.33198 | 1.33074 | 1.33045 | 1.32898
308.15 K | 1.34092 | 1.33843 | 1.33538 | 1.33278 | 1.33136 | 1.33131 | 1.33007 | 1.32979 | 1.32834
313.15 K | 1.3402 | 1.3377 | 1.33466 | 1.33207 | 1.33066 | 1.33061 | 1.32937 | 1.32908 | 1.32764

OCCOCCOCCO [triethylene glycol]
Details | mass density, [3] [kg/m3] | refractive index, [4] | vapor or sublimation pressure, [3] [kPa]
293.15 K | 1123.12 | 1.45619 [middle of 9 runs] | –
298.15 K | 1119.01 | 1.45447 [middle of 9 runs] | –
303.15 K | 1114.79 | 1.45273 [middle of 9 runs] | –
308.15 K | 1110.81 | 1.45106 [middle of 9 runs] | –
313.15 K | 1106.7 | 1.44927 [middle of 9 runs] | –
535.65 K | – | – | 53.33
543.87 K | – | – | 66.66
551.33 K | – | – | 79.99
559.01 K | – | – | 95.99

O [water]
Details | refractive index, 293.15 K | refractive index, 298.15 K | refractive index, 303.15 K | refractive index, 308.15 K | refractive index, 313.15 K | vapor or sublimation pressure, 356.16 K [kPa] | vapor or sublimation pressure, 361.89 K [kPa] | vapor or sublimation pressure, 366.73 K [kPa] | vapor or sublimation pressure, 371.71 K [kPa]
[3] | – | – | – | – | – | 53.33 | 66.66 | 79.99 | 95.99
[4] | 1.33325 [middle of 9 runs] | 1.33262 [middle of 9 runs] | 1.33203 [middle of 9 runs] | 1.33136 [middle of 9 runs] | 1.33066 [middle of 9 runs] | – | – | – | –
